pIC50: −log10 of the molar value.
Molecular target: T1, Lipoxygenase (type I-B) (Glycine max, UniProt P08170)
T1 sequence (P08170 1-839): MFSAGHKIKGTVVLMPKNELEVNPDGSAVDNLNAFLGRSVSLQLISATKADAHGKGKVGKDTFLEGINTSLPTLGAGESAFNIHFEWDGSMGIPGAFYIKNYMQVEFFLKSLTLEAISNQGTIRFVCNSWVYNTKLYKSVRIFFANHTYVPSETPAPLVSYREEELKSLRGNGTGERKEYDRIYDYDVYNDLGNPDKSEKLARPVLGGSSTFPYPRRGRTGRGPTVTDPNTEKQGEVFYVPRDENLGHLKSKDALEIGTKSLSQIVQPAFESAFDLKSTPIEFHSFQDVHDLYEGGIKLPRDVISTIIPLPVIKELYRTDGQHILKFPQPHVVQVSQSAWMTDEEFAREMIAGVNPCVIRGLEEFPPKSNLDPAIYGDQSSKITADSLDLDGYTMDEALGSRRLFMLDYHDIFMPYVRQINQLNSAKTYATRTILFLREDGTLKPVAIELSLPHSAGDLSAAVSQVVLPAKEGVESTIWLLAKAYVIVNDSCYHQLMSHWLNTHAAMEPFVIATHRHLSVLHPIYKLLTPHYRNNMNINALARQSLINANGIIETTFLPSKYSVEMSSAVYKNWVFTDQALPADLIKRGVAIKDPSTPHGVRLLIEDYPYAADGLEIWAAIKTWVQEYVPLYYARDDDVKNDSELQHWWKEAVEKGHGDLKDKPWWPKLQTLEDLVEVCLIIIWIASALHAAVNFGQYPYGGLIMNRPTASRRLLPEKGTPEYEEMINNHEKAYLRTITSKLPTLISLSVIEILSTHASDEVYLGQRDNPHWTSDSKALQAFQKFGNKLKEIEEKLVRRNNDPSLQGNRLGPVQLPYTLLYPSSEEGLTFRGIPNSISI
Assay: absorbance at […] nm, linoleic acid oxidation
Type: biochemical

Row | pIC50 | Structure (SMILES)
1 | 4.24 | C[C@H]1C(=O)CC[C@@H]2[C@]1(C)CC[C@H]1[C@@]2(C)CC[C@@]2(C)[C@@H]3CC(C)(C)CC[C@]3(C)CC[C@]12C [compound 1, friedelin]
2 | 4.27 | CC1(C)C[C@@H](O)[C@]2(C)CC[C@]3(C)C(=CC[C@@H]4[C@@]5(C)CC[C@H](O)C(C)(C)[C@@H]5CC[C@]43C)[C@@H]2C1 [compound 3, sopharadiol]
